The values that follow come from ChEMBL document CHEMBL1130510, “Synthesis and in vitro cytotoxicity of aminocoumarin platinum(II) complexes” (Bioorg Med Chem Lett, 1997).

One assay relates to Caco-2. The experiment in a line: Compound was tested in vitro for its cytotoxic activity against Caco-2T cells in MTT assay and activity is expressed as IC50. It is filed as functional, cell-based, Homo sapiens.
Conditions: not given
Background: Tetrazolium assays rely on reduction of a dye to a coloured formazan, in cell work by metabolically active cells.
For “7-Amino-4-Methyl-Coumarin Platinum (II) Complex [listing 1 of 2 here]”, the IC50 (commonly the point on the concentration scale where inhibition reaches its midpoint) amounted to 100 µg/mL. “7-Amino-4-Trifluoromethyl-Coumarin Platinum (II) Complex [listing 1 of 2 here]” yielded a half-maximal inhibitory concentration (IC50) of 10 µg/mL. “3-Acetamido-6-Aminocoumarin Platinum (II) Complex [listing 1 of 2 here]” displayed an IC50 of 80 µg/mL.

The next assay has as its system Caco-2. Nature of the assay: Compound was tested in vitro for its cytotoxic activity against Caco-2T cells in MTT assay and activity is expressed as IC80. Format: functional, cell-based. The settings on record: Homo sapiens.
“7-Amino-4-Methyl-Coumarin Platinum (II) Complex [listing 2 of 2 here]”: it took 30 µg/mL to reach the 80% level (IC80). 6-Aminocoumarin Platinum (II) Complex: the IC80 (as a rule, the concentration at which the effect reaches the 80% level) was 100 µg/mL. Same read-out and setting: to “7-Amino-4-Trifluoromethyl-Coumarin Platinum (II) Complex [listing 2 of 2 here]” belongs 5 µg/mL; to “3-Acetamido-6-Aminocoumarin Platinum (II) Complex [listing 2 of 2 here]”, 30 µg/mL.
